Ki and Km data for two molecules are collected here from article PMC2942996 (Journal of molecular biology, 2010).

Data set [1] has as its target isoprene synthase (PcISPS) (Populus tremula x Populus alba, UniProt Q9AR86, C533W/K308R/N59D). The experiment in a line: competitive inhibition of isoprene formation, SBSE GC-MS assay. The format is biochemical.
Substrate in the data set “enzyme kinetics”: CC(C)=CCOP(=O)(O)OP(=O)(O)O
In words: enzyme kinetics. The data set is classed as biochemical, Populus tremula x Populus alba. Conditions: Mg2+ active site.

Usually Ki stands for the equilibrium dissociation constant of an inhibitor or competing ligand from its target. By Km is commonly meant the concentration of substrate that gives half-maximal velocity.

`CC(C)=CCC/C(C)=C/COP(=O)(O)OP(=O)(O)O` [GPP, geranyl diphosphate]: in data set [1], the Ki came out at 550 µM.

B1: isoprene synthase (PcISPS) (Populus tremula x Populus alba; C533W/K308R/N59D) (protein)
chain: EARRSADYEPNSWDYDFLLSSDTDESIEVYKDKAKKLEAEVRREINNEKAEFLTLLELIDNVQRLGLGYRFESDIRRALDRFVSSGGFDGVTKTSLHATALSFRLLRQHGFEVSQEAFSGFKDQNGNFLENLKEDTKAILSLYEASFLALEGENILDEARVFAISHLKELSEEKIGKELAEQVNHALELPLHRRTQRLEAVWSIEAYRKKEDANQVLLELAILDYNMIQSVYQRDLRETSRWWRRVGLATKLHFARDRLIESFYWAVGVAFEPQYSDCRNSVAKMFSFVTIIDDIYDVYGTLDELELFTDAVERWDVNAINDLPDYMKLCFLALYNTINEIAYDNLKDKGENILPYLTKAWADLCNAFLQEAKWLYNKSTPTFDDYFGNAWKSSSGPLQLIFAYFAVVQNIKKEEIENLQKYHDIISRPSHIFRLCNDLASASAEIARGETANSVSCYMRTKGISEELATESVMNLIDETWKKMNKEKLGGSLFAKPFVETAINLARQSHCTYHNGDAHTSPDELTRKRVLSVITEPILPFER
With B1, the Km in “enzyme kinetics” stood at 3000 µM.
